Data as given in US8192767B2, “Antioxidant compositions comprising extracts of myrtle and rosemary” (Nuraging Biotech S.R.L., priority 2006, dated 2012).

How the values were obtained:
[1] = DPPH (2,2-diphenyl-1-picryl-hydrazyl) spectrophotometric antioxidant test in ethanol, 517 nm; format: biochemical; conditions: DPPH 6.0×10^−6 M
Text: The antioxidant activity of the combination which is the object of the present invention can be assayed in vitro using the DPPH (2,2-diphenyl-1-picryl-hydrazyl) spectrophotometric method. This method makes it possible to determine the antioxidant potential of a molecule to be assayed by measuring the variation of the absorbance of the radical DPPH in its presence at the wavelength of 517 nm (as reported in the literature) [Blois M. S., Antioxidant determination by the use of a stable free radical—Nature, 181:1199-1200; (1958)], according to the reaction: Z·+AH=ZH+A· [1] where: • Z· is the radical DPPH • AH is the single antioxidant (reducing) molecule present in the composition or in the extract • ZH is the reduced form of DPPH • A· is the free radical produced by oxidation of the antioxidant molecule.
The greater the reduction of the absorbance of the radical DPPH in solution, the greater will be the antioxidant potential of the molecule studied. The final results of the assay are expressed as EC50, i.e. as the concentration of antioxidant molecule at which there is a 50% reduction of the DPPH radical according to the following formula: % Inhibition=[A(T0)−A(Tn/A(T0)] • A(T0)=absorbance of the control sample at time 0 • A(Tn)=absorbance in the presence of the antioxidant sample at time n.
The antioxidant capacity of the combination according to the present invention was assayed in ethanol, using a DPPH concentration of 6.0×10^−6 M and final concentrations of each extract, previously solubilised in ethanol, ranging from 1 mcg/ml to 3 mg/ml. For the purposes of evaluating the synergistic effect the extracts were also assayed in a mixture in ratios ranging from 0.1:1 to 9.9:1. The myrtle and rosemary extracts were each subjected to the same extraction procedure, selected from among those indicated above, then brought to dryness and redissolved in ethanol at the desired concentrations so as to standardise the evaluation methodology. The absorbance was then determined at the wavelength of 517 nm in 1 cm quartz cells.

[2] = tested on: rat pheochromocytoma PC12 cell line; assay: ATPLite test: ATP production of PC12 cells after H2O2-induced toxicity; format: cell-based; conditions: H2O2 200 μM without addition of extracts
Text: The test used was the ATPLite™ test (Perkin Elmer, Milan), an ATP monitoring system based on luciferase, which permits assessment of the cytostatic and proliferative effects of various biological compounds. [Cree I. A. and Andreotti P. E. Measurement of cytotoxicity by ATP-based luminescence assay in primary cell cultures and cell lines—Toxicology in Vitro, 11, 553-556; (1997); Guan S., Bao Y. M., Jiang B., An L. Protective effect of protocatechuic acid from Alpinia oxyphylla on hydrogen peroxide-induced oxidative PC12 cell death—Eur. J. Pharmacol. 24: 538; (2006)].
The rat pheochromocytoma PC12 cell line (European Collection of Cell Cultures—ECACC, Sigma Aldrich, Milan) was used to evaluate the potential protective effects of extracts of rosemary (the same extract as described above in example 1) and of myrtle (the same extract as described above in example 2) against the toxicity induced by hydrogen peroxide (H2O2). The cells were grown on 96-well plates treated with poly-D-lysine (Sigma Aldrich, Milan) in D-MEM culture medium added with fetal bovine serum (FBS), penicillin/streptomycin, gentamycin, L-glutamine (all Invitrogen, Milan). […] After 24 hours the activity of the extracts on ATP production was evaluated using a Victor 3 spectrophotometer (Perkin Elmer, Milan). […]

SMILES	decrease in the absorbance of DPPH ([1]; BHA 0.01 mg/ml in ethanol) [%]	decrease in the absorbance of DPPH ([1]; BHA 0.1 mg/ml in ethanol) [%]	decrease in the absorbance of DPPH ([1]; BHA 1 mg/ml in ethanol) [%]	ATP production vs vehicle [2]
COc1ccc(O)c(C(C)(C)C)c1 [BHA, butylated hydroxyl anisol]	96.63	95.41	92.18	
OO [H2O2, hydrogen peroxide]				−80%±4.1
